Measurements as given in patent US5084082A, “Soybean plants with dominant selectable trait for herbicide resistance” (priority 1990, dated 1992).
Where a name gives a salt, the structure may show the parent alone.

What was measured:
Format in all cases: in vivo, soybean
Williams 82 [1] = test: Test A postemergence herbicide spray, greenhouse pots
Text: (§1) In the first post-emergence test, two true-breeding resistant mutant lines, W19 and W20, were compared to previously isolated tolerant mutants and wild-type Williams 82. Eighteen pots (20 cm diameter) of each soybean line (2 seeds per pot) were planted using a standard sterile potting mix. When the seedlings reached the second trifoliolate stage, plants were thinned back to one plant per pot. Each pot was then sprayed with a specific herbicide treatment using a conveyor belt spray apparatus to emulate field application. The nine different herbicide treatments included one rate (8 g/ha) of Compound 1 and two rates (8 and 32 g/ha) each of four other sulfonylurea herbicides (Compounds 2,3,7 and 8) (see Table VI) using a factorial treatment design with 2 replications.
(§2) In both postemergence tests, plants were returned to the greenhouse after treatment and provided with ample light, moisture, and nutrients to support healthy plant growth. Two to three ratings per pot were recorded over a three-week period and averaged to obtain a single value for each pot For each herbicide, analysis of variance on injury ratings was performed separately. Fisher's least significant difference (LSD) was used to determine the significance of line mean differences at each herbicide rate using the 95% level of confidence. […]

mutant W20 [2] = test: as above
Text: as §1, §2

Mutant 1-184A = test: as above
Text: as §1, §2

mutant W19 = test: as above
Text: as §1, §2

mutant line W20 = test: Test B postemergence cross resistance test; details: Glycine max, post-emergence
Text: (§3) In the second postemergence test, six true-breeding resistant mutant lines (W4, W17, W19, W20, W23, and W28) were compared to Williams 82 for cross resistance to a broad range of ALS inhibitors including eight sulfonylureas and three imidazolinones. Two seeds were planted in each 10 cm pot and allowed to grow to the second trifoliolate stage. Pots were not thinned back if both plants were at the proper stage. For each of 11 herbicides, two rates (Table VII) were selected based on previous data: the low rate was expected to cause significant injury (but not death) to Williams 82 and the high rate was expected to severely injure or kill Williams 82. All but a few line x rate treatments were replicated twice.
In both postemergence tests, plants were returned to the greenhouse after treatment and provided with ample light, moisture, and nutrients to support healthy plant growth. Two to three ratings per pot were recorded over a three-week period and averaged to obtain a single value for each pot For each herbicide, analysis of variance on injury ratings was performed separately. Fisher's least significant difference (LSD) was used to determine the significance of line mean differences at each herbicide rate using the 95% level of confidence.

mutant line W17 = test: Test B postemergence cross resistance test; details: Glycine max, post-emergence
Text: as §3, §2

mutant line W19 = test: Test B postemergence cross resistance test; details: Glycine max, post-emergence
Text: as §3, §2

Williams 82 [3] = test: Test B postemergence cross resistance test; details: Glycine max, post-emergence
Text: as §3, §2

mutant line W4 = test: Test B postemergence cross resistance test; details: Glycine max, post-emergence
Text: as §3, §2

mutant line W28 = test: Test B postemergence cross resistance test; details: Glycine max, post-emergence
Text: as §3, §2

mutant line W23 = test: Test B postemergence cross resistance test; details: Glycine max, post-emergence
Text: as §3, §2

Williams 82 [4] = test: Postemergence herbicide spray test of W4-4 (Table VII-A); details: two weeks after treatment
Experimental: (§4) To investigate this hypothesis, a postemergence herbicide spray test was conducted to compare the reaction of W4-4 to both W20 and wild-type Williams. The applicant was particularly interested in the resistance of W4-4 to herbicide treatments that were injurious to both Williams and W20 in a previous test (Table VII). […] Twenty-four plants each of W4-4, W20, and Williams were planted in separate 10 cm pots and allowed to grow to the second trifoliolate stage. Each pot constituted a single experimental unit receiving a single herbicide treatment. Herbicide treatments (Table VIIA) were applied as described for the first postemergence test and were replicated twice. Control plants were sprayed with the spray carrier solution only (water with 0.25% X77 surfactant). At two weeks after treatment, each plant was rated for % herbicide injury as described in Table VIII. Analysis of variance on injury ratings was performed separately for each herbicide to calculate treatment means and standard errors. Fisher's least significant difference (LSD) was used to determine the significance of line means differences at each herbicide rate using the 95% level of confidence. […]

Mutant W4-4 = test: as above; details: two weeks after treatment
Experimental: as §4

mutant W20 [5] = test: as above; details: two weeks after treatment
Experimental: as §4

W20 = test: Field use rate test (Table VII-B)
W4-4 = test: Field use rate test (Table VII-B)
WM82 (Williams) = test: Field use rate test (Table VII-B)

COC(=O)c1ccccc1S(=O)(=O)NC(=O)N(C)c1nc(C)nc(OC)n1 [Compound 3, Methyl 2-[[[[N-(4-methoxy-6-methyl-1,3,5-triazin-2-yl)N-methylamino]carbonyl]amino]sulfonyl]benzoate]
mean % injury (Williams 82 [1]; WM 82, 8 g/ha postemergence): 92% | mean % injury (Williams 82 [1]; WM 82, 32 g/ha postemergence): 95% | mean % injury (mutant W20 [2]; W20, 8 g/ha postemergence): 8% | mean % injury (mutant W20 [2]; W20, 32 g/ha postemergence): 63% | mean % injury (Mutant 1-184A; 8 g/ha postemergence): 90% | mean % injury (Mutant 1-184A; 32 g/ha postemergence): 91% | mean % injury (mutant W19; W19, 8 g/ha postemergence): 14% | mean % injury (mutant W19; W19, 32 g/ha postemergence): 63% | percent crop injury at 2 g/ha (mutant line W20; W20, 2 g/ha postemergence): 0% | soybean crop injury (%) at 2 g/ha (mutant line W17; W17, 2 g/ha postemergence): 0% | soybean crop injury (%) at 8 g/ha (mutant line W17; W17, 8 g/ha postemergence): 25% | percent soybean crop injury at 2 g/ha (mutant line W19; W19, 2 g/ha postemergence): 5% | percent soybean crop injury at 8 g/ha (mutant line W19; W19, 8 g/ha postemergence): 29% | soybean crop injury at 2 g/ha (Williams 82 [3]; Wm 82, 2 g/ha postemergence): 60% | soybean crop injury at 8 g/ha (Williams 82 [3]; Wm 82, 8 g/ha postemergence): 94% | % crop injury at 2 g/ha (mutant line W4; W4, 2 g/ha postemergence): 3% | % crop injury at 8 g/ha (mutant line W4; W4, 8 g/ha postemergence): 18% | mean % injury to soybean at 2 g/ha (mutant line W28; W28, 2 g/ha postemergence): 8% | mean % injury to soybean at 8 g/ha (mutant line W28; W28, 8 g/ha postemergence): 21% | percent soybean injury at 2 g/ha (mutant line W23; W23, 2 g/ha postemergence): 0% | percent soybean injury at 8 g/ha (mutant line W23; W23, 8 g/ha postemergence): 45%

CCS(=O)(=O)c1cccnc1S(=O)(=O)NC(=O)Nc1nc(OC)cc(OC)n1 [Compound 7, N-[[(4,6-dimethoxy-2-pyrimidinyl)amino]carbonyl]-3-(ethylsulfonyl)-2-pyridinesulfonamide]
mean % injury (Williams 82 [4]; WM82, 4 g/ha postemergence): 83% | mean % injury (Williams 82 [4]; WM82, 16 g/ha postemergence): 93% | mean % injury (Williams 82 [4]; WM82, 32 g/ha postemergence): 90% | mean % injury (Mutant W4-4; W4-4, 4 g/ha postemergence): 10% | mean % injury (Mutant W4-4; W4-4, 16 g/ha postemergence): 30% | mean % injury (Mutant W4-4; W4-4, 32 g/ha postemergence): 43% | mean % injury (mutant W20 [5]; W20, 4 g/ha postemergence): 28% | mean % injury (mutant W20 [5]; W20, 16 g/ha postemergence): 43% | mean % injury (mutant W20 [5]; W20, 32 g/ha postemergence): 83% | mean % injury (Williams 82 [1]; WM 82, 8 g/ha postemergence): 95% | mean % injury (Williams 82 [1]; WM 82, 32 g/ha postemergence): 93% | mean % injury (mutant W20 [2]; W20, 8 g/ha postemergence): 65% | mean % injury (mutant W20 [2]; W20, 32 g/ha postemergence): 84% | mean % injury (Mutant 1-184A; 8 g/ha postemergence): 93% | mean % injury (Mutant 1-184A; 32 g/ha postemergence): 93% | mean % injury (mutant W19; W19, 8 g/ha postemergence): 65% | mean % injury (mutant W19; W19, 32 g/ha postemergence): 80% | percent crop injury at 1 g/ha (mutant line W20; W20, 1 g/ha postemergence): 28% | percent crop injury at 4 g/ha (mutant line W20; W20, 4 g/ha postemergence): 66% | soybean crop injury (%) at 1 g/ha (mutant line W17; W17, 1 g/ha postemergence): 16% | soybean crop injury (%) at 4 g/ha (mutant line W17; W17, 4 g/ha postemergence): 55% | percent soybean crop injury at 1 g/ha (mutant line W19; W19, 1 g/ha postemergence): 19% | percent soybean crop injury at 4 g/ha (mutant line W19; W19, 4 g/ha postemergence): 65% | soybean crop injury at 1 g/ha (Williams 82 [3]; Wm 82, 1 g/ha postemergence): 61% | soybean crop injury at 4 g/ha (Williams 82 [3]; Wm 82, 4 g/ha postemergence): 98% | % crop injury at 1 g/ha (mutant line W4; W4, 1 g/ha postemergence): 21% | % crop injury at 4 g/ha (mutant line W4; W4, 4 g/ha postemergence): 69% | mean % injury to soybean at 1 g/ha (mutant line W28; W28, 1 g/ha postemergence): 20% | mean % injury to soybean at 4 g/ha (mutant line W28; W28, 4 g/ha postemergence): 54% | percent soybean injury at 1 g/ha (mutant line W23; W23, 1 g/ha postemergence): 31% | percent soybean injury at 4 g/ha (mutant line W23; W23, 4 g/ha postemergence): 60%

CC(C)C1(C)N=C(c2ncccc2C(=O)O)NC1=O (stereo not drawn) [Compound 11, 2-[4,5-dihydro-4-methyl-4-(1-methylethyl)-5-oxo-1H-imidazol-2-yl]-3-pyridinecarboxylic acid, 1-methylethanamine salt]
mean % injury (Williams 82 [4]; WM82, 64 g/ha postemergence): 73% | mean % injury (Williams 82 [4]; WM82, 125 g/ha postemergence): 83% | mean % injury (Mutant W4-4; W4-4, 64 g/ha postemergence): 38% | mean % injury (Mutant W4-4; W4-4, 125 g/ha postemergence): 53% | mean % injury (mutant W20 [5]; W20, 64 g/ha postemergence): 48% | mean % injury (mutant W20 [5]; W20, 125 g/ha postemergence): 80% | mean % injury (W20; W20, 8 g/ha): 20% | mean % injury (W20; W20, 17.5 g/ha): 30% | mean % injury (W20; W20, 35 g/ha): 60% | mean % injury (W4-4; W4-4, 8 g/ha): 0% | mean % injury (W4-4; W4-4, 17.5 g/ha): 5% | mean % injury (W4-4; W4-4, 35 g/ha): 25% | mean % injury (WM82 (Williams); WM82, 8 g/ha): 50% | mean % injury (WM82 (Williams); WM82, 17.5 g/ha): 60% | mean % injury (WM82 (Williams); WM82, 35 g/ha): 75% | percent crop injury at 16 g/ha (mutant line W20; W20, 16 g/ha postemergence): 44% | percent crop injury at 64 g/ha (mutant line W20; W20, 64 g/ha postemergence): 61% | soybean crop injury (%) at 16 g/ha (mutant line W17; W17, 16 g/ha postemergence): 39% | soybean crop injury (%) at 64 g/ha (mutant line W17; W17, 64 g/ha postemergence): 61% | percent soybean crop injury at 16 g/ha (mutant line W19; W19, 16 g/ha postemergence): 41% | percent soybean crop injury at 64 g/ha (mutant line W19; W19, 64 g/ha postemergence): 60% | soybean crop injury at 16 g/ha (Williams 82 [3]; Wm 82, 16 g/ha postemergence): 49% | soybean crop injury at 64 g/ha (Williams 82 [3]; Wm 82, 64 g/ha postemergence): 75% | % crop injury at 16 g/ha (mutant line W4; W4, 16 g/ha postemergence): 39% | % crop injury at 64 g/ha (mutant line W4; W4, 64 g/ha postemergence): 73% | mean % injury to soybean at 16 g/ha (mutant line W28; W28, 16 g/ha postemergence): 45% | mean % injury to soybean at 64 g/ha (mutant line W28; W28, 64 g/ha postemergence): 68% | percent soybean injury at 16 g/ha (mutant line W23; W23, 16 g/ha postemergence): 41% | percent soybean injury at 64 g/ha (mutant line W23; W23, 64 g/ha postemergence): 74%
